Laboratory results as given in the supplement of paper PMC5908809.

Tests used:
Assay in all cases: relative IC50 (inflection point of fitted viability curve, relative to fitted max inhibition); higher = less sensitive
Details in all cases: 72 h
DERL-7 (IL-2 2.5 ng/mL) = test system: DERL-7 (IL-2 2.5 ng/mL)
Experimental: (§1)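 Drug sensitivity and resistance testing: 5 concentrations over a 10,000-fold range, 72 h at 37 °C, viability by CellTiter-Glo normalised to DMSO and benzethonium chloride controls. IC50 is the inflection point of a logistic fit (min fixed at 0, max fitted), so it is relative to the fitted maximal inhibition. Kept only where fitted max inhibition is at least 50%.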

IMC-1 (IL-2 20 ng/mL) = test system: IMC-1 (IL-2 20 ng/mL)
Experimental: as §1

KAI3 (IL-2 2.5 ng/mL) = test system: KAI3 (IL-2 2.5 ng/mL)
Experimental: as §1

KHYG-1 (IL-2 2.5 ng/mL) = test system: KHYG-1 (IL-2 2.5 ng/mL)
Experimental: as §1

NK-92 (IL-2 2.5 ng/mL) = test system: NK-92 (IL-2 2.5 ng/mL)
Experimental: as §1

NK-YS (IL-2 2.5 ng/mL) = test system: NK-YS (IL-2 2.5 ng/mL)
Experimental: as §1

NKL (IL-2 2.5 ng/mL) = test system: NKL (IL-2 2.5 ng/mL)
Experimental: as §1

SNK-6 (IL-2 2.5 ng/mL) = test system: SNK-6 (IL-2 2.5 ng/mL)
Experimental: as §1

YT (IL-2 2.5 ng/mL) = test system: YT (IL-2 2.5 ng/mL)
Experimental: as §1

[1] = test system: normal primary NK cells, pool 1 (3 donors) (IL-2 2.5 ng/mL)
Experimental: as §1

[2] = test system: normal primary NK cells, pool 2 (3 donors) (IL-2 2.5 ng/mL)
Experimental: as §1

[3] = test system: normal primary NK cells, pool 3 (3 donors) (IL-2 2.5 ng/mL)
Experimental: as §1

[4] = test system: normal primary NK cells, pool 1 (3 donors), resting (IL-2 0 ng/mL)
Experimental: as §1

| Structure (SMILES) | relative IC50 (DERL-7 (IL-2 2.5 ng/mL)) | relative IC50 (IMC-1 (IL-2 20 ng/mL)) | relative IC50 (KAI3 (IL-2 2.5 ng/mL)) | relative IC50 (KHYG-1 (IL-2 2.5 ng/mL)) | relative IC50 (NK-92 (IL-2 2.5 ng/mL)) | relative IC50 (NK-YS (IL-2 2.5 ng/mL)) | relative IC50 (NKL (IL-2 2.5 ng/mL)) | relative IC50 (SNK-6 (IL-2 2.5 ng/mL)) | relative IC50 (YT (IL-2 2.5 ng/mL)) | relative IC50 [1] | relative IC50 [2] | relative IC50 [3] | relative IC50 [4] |
| --- | --- | --- | --- | --- | --- | --- | --- | --- | --- | --- | --- | --- | --- |
| N#CC[C@H](C1CCCC1)n1cc(-c2ncnc3[nH]ccc23)cn1 [Ruxolitinib] | 0.0454 µM | 0.78 µM | 0.0171 µM | 0.0219 µM | 0.0557 µM | 0.0851 µM | 0.0158 µM | 0.0311 µM | 0.142 µM | 0.069 µM | 0.0437 µM | 0.0804 µM | – |
| CC(C)C[C@H](NC(=O)[C@H](Cc1ccccc1)NC(=O)c1cnccn1)B(O)O [Bortezomib] | 0.00169 µM | 0.00334 µM | 0.00307 µM | 0.00294 µM | 0.00332 µM | 0.00304 µM | 0.00328 µM | 0.00215 µM | 0.00297 µM | 0.00362 µM | 0.00328 µM | 0.00362 µM | 0.0047 µM |
| O=C(Nc1cccc(Nc2ncc(Br)c(NCCc3cnc[nH]3)n2)c1)N1CCCC1 [BX-912] | 1.06 µM | 0.735 µM | 0.474 µM | 0.507 µM | 1.17 µM | 1.85 µM | 1.01 µM | 0.482 µM | 1.51 µM | 1.27 µM | 1.17 µM | 1.42 µM | – |
| NC(=O)N1CCC(CC(=O)N2CCC([C@H]3c4ncc(Br)cc4CCc4cc(Cl)cc(Br)c43)CC2)CC1 [Lonafarnib] | 0.708 µM | – | – | 0.492 µM | 0.719 µM | 0.45 µM | – | – | 1.06 µM | 1.66 µM | 1.58 µM | 1.86 µM | 0.693 µM |
| COc1cccc2c1C(=O)c1c(O)c3c(c(O)c1C2=O)C[C@@](O)(C(=O)CO)C[C@@H]3O[C@H]1C[C@H](N)[C@H](O)[C@H](C)O1 [Doxorubicin] | 0.0323 µM | 0.0453 µM | 0.0272 µM | 0.0567 µM | 0.0762 µM | 0.0294 µM | 0.00441 µM | 0.0412 µM | 0.0696 µM | 0.118 µM | 0.119 µM | 0.159 µM | 0.0599 µM |
| c1ccc2c(CCNc3ccc(Nc4ccncc4)cc3)c[nH]c2c1 [Serdemetan] | 0.329 µM | 2.58 µM | 0.436 µM | 1.67 µM | 1.79 µM | 0.88 µM | 0.212 µM | 2.98 µM | 1.82 µM | 0.914 µM | 1.26 µM | 1.14 µM | 0.516 µM |
| Nc1nc(F)nc2c1ncn2[C@@H]1O[C@H](CO)[C@@H](O)[C@@H]1O [Fludarabine] | 3.72 µM | 3.13 µM | 2.25 µM | 2.63 µM | 1.56 µM | – | 0.895 µM | – | – | 0.996 µM | 0.957 µM | 1.36 µM | 0.491 µM |
| C=CCc1cccc(/C=N/NC(=O)CN2CCN(Cc3ccccc3)CC2)c1O [PAC-1] | 1.98 µM | 3.02 µM | 0.679 µM | 0.543 µM | 0.845 µM | 2.74 µM | 0.591 µM | 0.996 µM | 1.62 µM | 2.89 µM | 2.05 µM | 1.91 µM | 3.35 µM |
